Measured values published in patent US20240246941A1, “SUBSTITUTED 4-(3-AMINOPROP-1-YL)AMINOQUINOLINE ANALOGS AS MODULATORS OF MELANOMA-ASSOCIATED ANTIGEN 11 UBIQUITIN LIGASE” (ST. JUDE CHILDREN'S RESEARCH HOSPITAL, INC., priority 2020, published 2024).

target: MAGE-A11:PCF11 (Homo sapiens (Human), UniProt P43364); assay: TR-FRET single point screening at 15 μM; assay type: binding; design: unit not given here; settings: single point TR-FRET screening at 15 μM against MAGE-A11:PCF11
Summary of the method: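 Competition TR-FRET: compounds at final 15 μM mixed with 200 nM FAM-PCF11_4, 5 nM GST-MAGEA11 and 5 nM Tb-anti-GST in Tris pH 7.5/MgCl2/BSA/DTT buffer, room temperature, 90 min. Emission ratio 520/490 nm (340 nm excitation) expressed as % inhibition relative to positive and negative controls.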

Chain of MAGE-A11:PCF11 (P43364 218-429): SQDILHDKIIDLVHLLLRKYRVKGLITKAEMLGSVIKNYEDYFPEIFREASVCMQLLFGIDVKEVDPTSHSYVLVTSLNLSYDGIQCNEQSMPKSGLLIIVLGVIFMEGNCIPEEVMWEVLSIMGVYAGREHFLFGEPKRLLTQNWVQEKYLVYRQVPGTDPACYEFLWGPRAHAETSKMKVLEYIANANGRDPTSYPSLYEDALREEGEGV

Structure (SMILES)	TR-FRET signal
CCCN(CCCNc1c2ccc(Cl)cc2nc2ccc(OC)cc12)CC1CCCCC1 [SJ000520938]	−163.9
CCN1CCN(c2c(S(=O)(=O)c3ccc(C)c(C)c3)cnc3ccc(OC)cc23)CC1 [SJ000247335]	−4.579
CC(C)CN(CCCCNc1ccnc2cc(Cl)ccc12)Cc1ccccc1 [SJ000357470]	25.47
COc1ccc2nc3cc(Cl)ccc3c(NCCCNCc3cccc(C(F)(F)F)c3)c2c1 [SJ000520990]	−408.1
CCCN(CCCNc1c2ccc(Cl)cc2nc2ccc(OC)cc12)Cc1ccc2ccccc2c1 [SJ000520953]	−129.1
COc1ccc(N2CCN(c3c(S(=O)(=O)c4ccc(C)cc4)cnc4ccc(Cl)cc34)CC2)cc1 [SJ000117072]	−5.838
CCOc1ccc2ncc(S(=O)(=O)c3ccc(C)cc3)c(N3CCN(c4ccccc4)CC3)c2c1 [SJ000117049]	−45.32
O=C(O)CCCNC(=O)CNc1c2ccccc2nc2ccccc12 [SJ000016432]	9.598
CCc1ccc2ncc(S(=O)(=O)c3ccccc3)c(N3CCN(C)CC3)c2c1 [SJ000083946]	−6.249
CCN1CCN(c2c(S(=O)(=O)c3ccccc3)cnc3ccc(OC)cc23)CC1 [SJ000083958]	0.1242
CCCNCCCNc1c2ccc(Cl)cc2nc2ccc(OC)cc12 [SJ000361096]	−498.5
Fc1ccc(CN2CCC(Nc3ccnc4cc(Cl)ccc34)CC2)cc1F [SJ000523089]	−1.958
CCN(CC)CC(=O)Nc1c2c(nc3ccccc13)N(C)CC2 [SJ000331537]	11.78
COc1ccc(N2CCN(c3c(S(=O)(=O)c4ccccc4)cnc4ccc(OC)cc34)CC2)cc1 [SJ000117071]	−32.67
CCCN(CCCNc1c2ccc(Cl)cc2nc2ccc(OC)cc12)Cc1ccccc1OC [SJ000520950]	−271.1
CCc1nc2ccccc2c(NC(=O)CN2CCN(c3ccccc3)CC2)c1C [SJ000111681]	6.894

Structure (SMILES)	TR-FRET signal
COc1ccc2nc3cc(Cl)ccc3c(NCCCNCc3ccccn3)c2c1 [SJ000523024]	−255.3
COc1ccc(S(=O)(=O)c2cnc3cc(OC)c(OC)cc3c2N2CCN(C)CC2)cc1 [SJ000083955]	0.8227
Cc1cc(NC(=O)CN2CCN(C(=O)c3ccco3)CC2)c2ccccc2n1 [SJ000111679]	−1.072
CCC(C)CN1CCC(Nc2ccnc3cc(Cl)ccc23)CC1 (centres unmarked) [SJ000523105]	11.19
COc1ccc2nc3cc(Cl)ccc3c(NCCCNCc3c(F)cccc3C(F)(F)F)c2c1 [SJ000520999]	−116.7
CCCN(CCCNc1c2ccc(Cl)cc2nc2ccc(OC)cc12)Cc1cc(C)ccc1C [SJ000520960]	−119.3
COc1ccc2nc3cc(Cl)ccc3c(NCCCNCc3cc(F)ccc3OC)c2c1 [SJ000520993]	−365.4
CCc1ccc2ncc(S(=O)(=O)c3ccc(OC)cc3)c(N3CCN(C)CC3)c2c1 [SJ000083954]	−5.969
COc1cccc(CN2CCC(Nc3ccnc4cc(Cl)ccc34)CC2)c1 [SJ000523107]	3.149
Clc1ccc2c(NCCCCN(Cc3ccccc3)Cc3ccccn3)ccnc2c1 [SJ000312690]	9.531
Clc1ccc2c(NC3CCN(Cc4ccc5c(c4)OCO5)CC3)ccnc2c1 [SJ000523087]	7.643
CCOc1ccc2ncc(S(=O)(=O)c3ccccc3)c(N3CCN(Cc4ccccc4)CC3)c2c1 [SJ000247249]	−15.91
Cc1ccc(S(=O)(=O)c2cnc3ccc(Cl)cc3c2N2CCN(c3ccccc3)CC2)cc1 [SJ000117050]	−3.321
CCCCCN(CCCCNc1ccnc2cc(Cl)ccc12)Cc1ccccc1 [SJ000361196]	19.1
CN(C)CCNc1c2c(nc3ccccc13)CCC2 [SJ000013622]	3.285

same assay, conditions: single point TR-FRET screening of quinoline compounds against MAGE-A11:PCF11; 15 μM

Structure (SMILES)	TR-FRET signal
CCCN(CCCNc1ccnc2cc(Cl)ccc12)Cc1sccc1C [SJ000357439]	19.73
Cc1csc(CN(CCCNc2ccnc3cc(Cl)ccc23)Cc2ccccc2)n1 [SJ000520463]	−10.47
CCCN(CCCNc1ccnc2cc(Cl)ccc12)Cc1ccoc1 [SJ000357442]	6.214
O=[N+]([O-])c1cccc(CN(CCCNc2ccnc3cc(Cl)ccc23)Cc2ccccc2)c1 [SJ000361178]	17.02
CC(C)CCN(CCCNc1ccnc2cc(Cl)ccc12)Cc1ccccc1 [SJ000311183]	2.673
CCCN(CCCNc1ccnc2cc(Cl)ccc12)Cc1cnn(C)c1 [SJ000523009]	10.06
COc1ccc(C(F)(F)F)cc1CN(CCCNc1ccnc2cc(Cl)ccc12)Cc1ccccc1 [SJ000520450]	23.18
CCCN(CCCNc1ccnc2cc(Cl)ccc12)Cc1c(C)n(C)n(-c2ccccc2)c1=O [SJ000522755]	13.64
CCCN(CCCNc1ccnc2cc(Cl)ccc12)Cc1cc(F)ccc1OC [SJ000357494]	17.08
COc1cccc(F)c1CN(CCCNc1ccnc2cc(Cl)ccc12)Cc1ccccc1 [SJ000357500]	−2.857
Clc1ccc2c(NCCCN(Cc3ccccc3)Cc3nccs3)ccnc2c1 [SJ000312676]	−4.148
CC(C)CN(CCCNc1ccnc2cc(Cl)ccc12)Cc1ccccc1 [SJ000357468]	18.75
CCCN(CCCNc1ccnc2cc(Cl)ccc12)Cc1nccn1C [SJ000523002]	6.351
COc1ccc2nc3cc(Cl)ccc3c(NCCCNCc3ccc(-c4cccc(Cl)c4)o3)c2c1 [SJ000522959]	−47.42
CCCN(CCCNc1ccnc2cc(Cl)ccc12)Cc1ccc(Cl)cc1Cl [SJ000523043]	12.1
CCCN(CCCCCC(=O)OC)CCCNc1ccnc2cc(Cl)ccc12 [SJ000523017]	14.3
CCCN(CCCNc1ccnc2cc(C(F)(F)F)ccc12)Cc1nc2ccccc2s1 [SJ000520484]	7.404
Cn1ccnc1CN(CCCNc1ccnc2cc(Cl)ccc12)Cc1ccccc1 [SJ000520431]	15.36
CCCN(CCCNc1ccnc2cc(Cl)ccc12)Cc1ccc(Br)o1 [SJ000311195]	14.48
CCOC(=O)c1cnc2c(C)cc(C)cc2c1NCCCN1CCOCC1 [SJ000173725]	6.494
CN(C)c1cccc(Oc2ccc3c(NCCCNCc4ccco4)ccnc3c2)c1 [SJ000311230]	63.42
CCCN(CCCNc1c2ccc(Cl)cc2nc2ccc(OC)cc12)Cc1cc(F)ccc1OC [SJ000520931]	1.847
CCCN(CCCNc1c2ccc(Cl)cc2nc2ccc(OC)cc12)Cc1cccc(OC(F)(F)F)c1 [SJ000522967]	14.48
c1ccc(Cc2ccc3c(NCCCNCc4ccco4)ccnc3c2)cc1 [SJ000311306]	64.54
Clc1ccc2c(NCCCN(Cc3ccccc3)Cc3ccc(Br)o3)ccnc2c1 [SJ000312671]	−1.797

Structure (SMILES)	TR-FRET signal
CCCN(CCCNc1ccnc2cc(C(F)(F)F)ccc12)Cc1nccn1C [SJ000575170]	7.124
FC(F)(F)c1ccc2c(NCCCNCc3cccnc3)ccnc2c1 [SJ000521042]	15.04
Cc1ccsc1CN(CCCNc1ccnc2cc(Cl)ccc12)Cc1ccccc1 [SJ000357440]	10.9
CCCN(CCCNc1ccnc2cc(C(F)(F)F)ccc12)Cc1ccccc1OC(F)(F)F [SJ000520470]	5.934
CCCN(CCCNc1ccnc2cc(C(F)(F)F)ccc12)Cc1cccc(C(F)(F)F)c1 [SJ000520471]	13.02
CCCN(CCCNc1ccnc2cc(Cl)ccc12)Cc1cccc(C)c1 [SJ000523041]	28.55
Clc1ccc2c(NCCCN(Cc3ccccc3)Cc3ccsc3)ccnc2c1 [SJ000312675]	9.598
CCCCN(CCCNc1ccnc2cc(Cl)ccc12)Cc1ccccc1 [SJ000357579]	19.31
Clc1cccc(Cl)c1Cc1ccc2c(NCCCNCc3ccco3)ccnc2c1 [SJ000311314]	32.4
NC(=O)CC(Nc1c2ccccc2nc2ccccc12)C(=O)O (centres unmarked) [SJ000044383]	20.1
CCCN(CCCNc1ccnc2cc(C(F)(F)F)ccc12)Cc1cccc(OC(F)(F)F)c1 [SJ000520473]	9.085
CCCN(CCCNc1ccnc2cc(Cl)ccc12)Cc1cccnc1 [SJ000357446]	7.809
Clc1ccc2c(NCCCN(Cc3ccccc3)Cc3cccc4ccccc34)ccnc2c1 [SJ000361181]	26.23
CN(C)CCCNc1c2c(nc3ccccc13)CCC2 [SJ000029259]	24.05
COc1ccc(-c2ccc3c(NCCCNCc4ccco4)ccnc3c2)cc1 [SJ000311294]	7.824
CCCN(CCCNc1c2ccc(Cl)cc2nc2ccc(OC)cc12)Cc1sccc1C [SJ000520921]	−83.81
CCCCCCN(CCC)CCCNc1ccnc2cc(C(F)(F)F)ccc12 [SJ000523083]	34.95
CC(C)(C)CCN(CCCNc1ccnc2cc(Cl)ccc12)Cc1ccccc1 [SJ000357578]	25.69
CC(C)(C)c1ccc(-c2ccc3c(NCCCNCc4ccco4)ccnc3c2)cc1 [SJ000311286]	73.5
C#Cc1ccccc1CN(CCC)CCCNc1ccnc2cc(Cl)ccc12 [SJ000523000]	12.45
CCCN(CCCNc1c2ccc(Cl)cc2nc2ccc(OC)cc12)Cc1cccc(F)c1 [SJ000520945]	−90.13
c1ccc(Oc2ccc3c(NCCCNCc4ccco4)ccnc3c2)cc1 [SJ000311206]	14.59
CCCN(CCCNc1ccnc2cc(C(F)(F)F)ccc12)Cc1cc(OC)ccc1O [SJ000361263]	25.26
CN(C)CCCNc1c2ccccc2nc2ccccc12 [SJ000044378]	16.77
